# Laboratory results: patent publication US11014895B2, “Heterocyclic urea compound, and drug composition and application thereof” (CHINA PHARMACEUTICAL UNIVERSITY, priority 2017, dated 2021)
# Assays:
# [1] = target: T1, IDO1 enzyme in the Hela cell (Homo sapiens, UniProt P14902); assay: Cell activity: interferon γ-stimulated Hela cells, absorbance of supernatant at 480 nm; assay type: cell-based; conditions: interferon γ 100 ng/ml, 72 hours
# T1 construct: endogenous in cells; host or cells: HeLa cells stimulated with interferon γ (100 ng/ml)
# T1 sequence (P14902 whole entry): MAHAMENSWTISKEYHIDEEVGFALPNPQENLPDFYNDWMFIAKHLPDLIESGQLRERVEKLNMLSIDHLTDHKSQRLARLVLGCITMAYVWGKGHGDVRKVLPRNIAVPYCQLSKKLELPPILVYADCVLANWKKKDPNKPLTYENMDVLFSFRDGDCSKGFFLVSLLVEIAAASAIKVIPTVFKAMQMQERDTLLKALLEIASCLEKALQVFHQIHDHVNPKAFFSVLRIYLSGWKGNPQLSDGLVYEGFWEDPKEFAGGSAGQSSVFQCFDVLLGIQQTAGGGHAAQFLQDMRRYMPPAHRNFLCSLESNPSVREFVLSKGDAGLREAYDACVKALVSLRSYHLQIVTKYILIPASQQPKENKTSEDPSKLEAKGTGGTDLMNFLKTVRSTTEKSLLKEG
# In short: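 Kynurenine-type readout: supernatant from IFN-γ-stimulated (100 ng/ml final) HeLa cells, 72 h with compound, was acid-hydrolysed with trichloroacetic acid (50 °C, 30 min). After centrifugation, 2% dimethylaminobenzaldehyde/acetic acid added and absorbance measured at 480 nm.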
# IDO1 enzyme = IDO1 enzyme (Homo sapiens, UniProt P14902); assay: Determination of biochemical activity of IDO1 enzyme (absorbance at 320 nm); conditions: room temperature, 3 hours
# Chain of IDO1 enzyme (P14902 whole entry): as above
# In short: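 Absorbance at 320 nm was measured after a 3-hour room-temperature reaction of enzyme with compound. Phosphate buffer at pH 7-8 was used; inhibition was derived from the absorption ratio and fitted to IC50.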
SMILES,IC50 [1] [µM],IC50 (IDO1 enzyme) [µM]
"COc1ccc(NC(=O)Nc2nonc2/C(=N/O)Nc2ccc(F)c(Br)c2)c(F)c1 [Embodiment 20, (Z)-1-(4-(N-(3-bromo-4-fluorophenyl)-N′-hydroxyaminoiminomethyl)-1,2,5-oxadiazole-3-substituted)-3-(4-methoxy-2-fluorophenyl)urea]",0.1 to 1,0.1 to 1
"O=C(Nc1nocc1/C(=N/O)Nc1ccc(F)c(Cl)c1)NC1CCCCC1 [Embodiment 99, (Z)-1-(4-(N-(3-chloro-4-fluorophenyl)-N′-hydroxyaminoiminomethyl)-isoxazole-3-substituted)-3-(cyclohexyl)urea]",0.1 to 1,0.1 to 1
"COc1ccc(NC(=S)Nc2nonc2/C(=N/O)Nc2ccc(F)c(Br)c2)cc1 [Embodiment 115, (Z)-1-(4-(N-(3-bromo-4-fluorophenyl)-N′-hydroxyaminoiminomethyl)-1,2,5-oxadiazole-3-substituted)-3-(4-methoxyphenyl)thiourea]",0.1 to 1,0.1 to 1
"O=C(Nc1conc1/C(=N/O)Nc1ccc(F)c(Br)c1)NC1CCCC1 [Embodiment 104, (Z)-1-(4-(N-(3-bromo-4-fluorophenyl)-N′-hydroxyaminoiminomethyl)-isoxazole-3-substituted)-4-(cyclopentyl)urea]",> 1,> 1
"N=C(Nc1nonc1/C(=N/O)Nc1ccc(F)c(Br)c1)NC1CCCCC1 [Embodiment 145, (Z)-1-(4-(N-(3-bromo-4-fluorophenyl)-N′-hydroxyaminoiminomethyl)-1,2,5-oxadiazole-3-substituted)-3-cyclohexylguanidine]",< 0.001,< 0.001
"O=C(Nc1ccccc1)Nc1nonc1/C(=N/O)Nc1ccc(F)cc1 [Embodiment 51, (Z)-1-(4-(N-(4-fluorophenyl)-N′-hydroxyaminoiminomethyl)-1,2,5-oxadiazole-3-substituted)-3-phenylurea]",0.1 to 1,0.1 to 1
O=C(Nc1nonc1/C(=N/O)Nc1ccc(F)cc1)NC1CCC(O)CC1 (stereo not shown) [Embodiment 55],< 0.001,< 0.001
"O=C(Nc1cc[nH]c1)Nc1cocc1/C(=N/O)Nc1ccc(F)c(Br)c1 [Embodiment 76, (Z)-1-(4-(N-(3-bromo-4-fluorophenyl)-N′-hydroxyaminoiminomethyl)-furan-3-substituted)-3-(1H-pyrrole-3-substituted)urea]",> 1,> 1
NS(=O)(=O)NCCNC(=O)Nc1nonc1/C(=N/O)Nc1ccc(F)c(Cl)c1 [Embodiment 30],< 0.001,< 0.001
"N=C(Nc1ccc(C(F)(F)F)cc1)Nc1nonc1/C(=N/O)Nc1ccc(F)c(Br)c1 [Embodiment 143, (Z)-1-(4-(N-(3-bromo-4-fluorophenyl)-N′-hydroxyaminoiminomethyl)-1,2,5-oxadiazole-3-substituted)-3-(4-trifluorophenyl)guanidine]",> 1,> 1
NC1CCC(NC(=O)Nc2conc2/C(=N/O)Nc2ccc(F)c(Br)c2)CC1 (stereo not shown) [Embodiment 108],0.1 to 1,0.1 to 1
"N=C(Nc1nonc1/C(=N/O)Nc1ccc(F)c(Br)c1)NC1CCC(O)CC1 (stereo not shown) [Embodiment 147, (Z)-1-(4-(N-(3-bromo-4-fluorophenyl)-N′-hydroxyaminoiminomethyl)-1,2,5-oxadiazole-3-substituted)-3-(4-hydroxycyclohexyl)guanidine]",< 0.001,< 0.001
"COc1ccc(NC(=N)Nc2cocc2/C(=N/O)Nc2ccc(F)c(Br)c2)cc1 [Embodiment 160, (Z)-1-(4-(N-(3-bromo-4-fluorophenyl)-N′-hydroxyaminoiminomethyl)-furan-3-substituted)-3-(4-methoxyphenyl)guanidine]",0.1 to 1,0.1 to 1
O=C(Nc1conc1/C(=N/O)Nc1ccc(F)c(Br)c1)NC1CCCCC1 [Embodiment 103],0.1 to 1,0.1 to 1
"O=C(Nc1nocc1/C(=N/O)Nc1ccc(F)c(Br)c1)Nc1cccc2[nH]ccc12 [Embodiment 94, (Z)-1-(4-(N-(3-bromo-4-fluorophenyl)-N′-hydroxyaminoiminomethyl)-isoxazole-3-substituted)-3-(4-aminoindole)urea]",0.1 to 1,0.1 to 1
"N=C(Nc1nonc1/C(=N/O)Nc1ccc(F)c(Br)c1)NC1CCCC1 [Embodiment 146, (Z)-1-(4-(N-(3-bromo-4-fluorophenyl)-N′-hydroxyaminoiminomethyl)-1,2,5-oxadiazole-3-substituted)-3-cyclopentylguanidine]",> 1,> 1
"O=C(Nc1conc1/C(=N/O)Nc1ccc(F)c(Br)c1)NC1CC1 [Embodiment 107, (Z)-1-(4-(N-(3-bromo-4-fluorophenyl)-N′-hydroxyaminoiminomethyl)-isoxazole-3-substituted)-4-cyclopropylurea]",> 1,> 1
"OCCNC(=S)Nc1nonc1/C(=N/O)Nc1ccc(F)c(Br)c1 [Embodiment 128, (Z)-1-(4-(N-(3-bromo-4-fluorophenyl)-N′-hydroxyaminoiminomethyl)-1,2,5-oxadiazole-3-substituted)-3-(2-hydroxyethyl)thiourea]",< 0.001,< 0.001
CS(=O)(=O)N1CCN(C(=O)Nc2nonc2/C(=N/O)Nc2ccc(F)cc2)CC1 [Embodiment 53],0.1 to 1,0.1 to 1
"NCCCNC(=O)Nc1nonc1/C(=N/O)Nc1ccc(F)c(Br)c1 [Embodiment 14, (Z)-1-(4-(N-(3-bromo-4-fluorophenyl)-N′-hydroxyaminoiminomethyl)-1,2,5-oxadiazole-3-substituted)-3-(3-aminopropane)urea]",< 0.001,< 0.001
"N=C(Nc1ccccc1)Nc1conc1/C(=N/O)Nc1ccc(F)c(Cl)c1 [Embodiment 155, (Z)-1-(4-(N-(3-chloro-4-fluorophenyl)-N′-hydroxyaminoiminomethyl)-isoxazole-3-substituted)-4-phenylguanidine]",0.1 to 1,0.1 to 1
"COc1ccc(NC(=O)Nc2nocc2/C(=N/O)Nc2ccc(F)c(Br)c2)cc1 [Embodiment 79, (Z)-1-(4-(N-(3-bromo-4-fluorophenyl)-N′-hydroxyaminoiminomethyl)-isoxazole-3-substituted)-3-(4-methoxyphenyl)urea]",0.1 to 1,0.1 to 1
"O=C(Nc1ncncn1)Nc1nonc1/C(=N/O)Nc1ccc(F)c(Br)c1 [Embodiment 44, (Z)-1-(4-(N-(3-bromo-4-fluorophenyl)-N′-hydroxyaminoiminomethyl)-1,2,5-oxadiazole-3-substituted)-3-(1,3,5-triazine-2-substituted)urea]",> 1,> 1
